Like-named read-outs stand apart in the source and are kept apart here.
Assays:
focal cerebral ischaemia = assay: Effect on focal cerebral ischaemia with reperfusion (transient occlusion of the middle cerebral artery); format: in vivo, rat (male Sprague-Dawley)
Protocol: Their activity was evaluated on a model of focal cerebral ischaemia in the rat. […] The effects of the combination were compared with those produced by a treatment with the inhibitor of nitrogen monoxide or the trap of reactive forms of oxygen alone.
5) Effect on focal cerebral ischaemia with reperfusion
The experiments are carried out on male Sprague-Dawley rats (Charles River) weighing between 330 and 360 g. After anaesthesia with isoflurane, the rats undergo transient occlusion of the middle cerebral artery described by Memezawa et al. (Exp. Brain Res. 89, 67-78, 1992). A wire is introduced into the anterior cerebral artery bringing about an occlusion of the middle cerebral artery. Two hours later, the wire is withdrawn so as to permit recirculation of the blood to the Willis polygon. The temperature of the animals is monitored and controlled for 6 hours after occlusion. Forty eight hours after occlusion, the rats are anlesthetised with isoflurane and decapitated. Samples of brain are taken rapidly and immersed for 2 minutes in isopentane at -15° C. Six sections 2 mm thick are obtained and placed in a solution containing 2% 2,3,5-triphenyltetrazolium chloride (TCC) for 20 min and then fixed with formalin. The infarcted zone appears white and the healthy zone red. The infarcted surface area is measured at the site of the (sections by means of an image analyser. The volume of the infarct is calculated by integrating these various surface areas in the knowledge that they are 2 mm apart. The products are administered intraperitoneally. The first treatment is carried out 4 hours after occlusion, that is, 2 hours after the w ire was withdrawn, then 24 hours afterwards.
Compound of example 1: 4 groups of animals are created:
Group 1: treated with physiol ogical serum
Group 2: treated with A (30 mg/kg)
Group 3: treated with B (20 mg/kg)
Group 4: treated with AB (50 mg/kg)
Compound of example 2: 4 groups of animals are created:
Group 1: treated with physiological serum
Group 2: treated with A (10 mg/kg)
Group 4: treated with AB (A: 10 mg/kg and B: 20 mg/kg)
Compound of example 3: 4 groups of animals are created:
Group 2: treated with A (0.03 mg/kg i.v.)
Group 3: treated with B (20 mg/kg i.p.)
Group 4: treated with AB (A: 0.03 mg/kg i.v. and B: 20 mg/kg i.p.)

constitutive NO synthase = constitutive NO synthase (Rattus norvegicus, UniProt P29476); assay: biochemical
Protocol: 1) In vitro effect of constitutive NO synthase on the rat cerebellum
The test consists in measuring the conversion, by NO synthase, of L-arginine to L-citrulline. Samples of cerebella of Sprague-Dawley rats (300 g--Charles River) are taken rapidly, dissected at 4° C. and homogenised in a volume of extraction buffer (HEPES 50 mM, EDTA 1 mM, pH 7.4, pepstatin A […], leupeptin […]) centrifuged at 21000 g for 15 min at 4° C. The assay is carried out in glass test tubes in which are distributed […] of incubation buffer containing 100 mM of HEPES, pH 7.4, 2 mM of EDTA, 2.5 mM of CaCl2, 2 mM of dithiothreitol,2 mM of reduced NADPH and 10 µg/ml of calmodulin. […] The reaction is initiated by adding 50 μl of homogenised product, the final volume being 200 μl (the 25 μl shortfall being either water or the product being tested). After 15 min, the reaction is stopped with 2 ml of stop buffer (20 mM of HEPES, pH 5.5, 2 mM of EDTA). After passing samples over a column of 1 ml of DOWEX resin, the radioactivity is quantified by a liquid scintillation spectrometer.
The results are expressed in terms of the IC50 value and are summarised in the table of paragraph 2 (first column of results entitled "constitutive NO synthase, formation of citrulline").

inducible NO synthase [1] = target: T1, inducible NO synthase (Mus musculus, UniProt P29477); assay: In vitro effect on inducible NO synthase of murine macrophages J774A1 (formation of citrulline); format: biochemical; settings: NO synthase isolated from LPS/IFN-γ activated J774A1 macrophages, pH 7.4
T1 construct: The NO synthase is isolated with an extraction buffer; endogenous in cells; sonicated, 100,000 g ultracentrifuged extract
Protocol: 2) In vitro effect on inducible NO synthase of murine macrophages J774A1
Murine macrophages J774A1 produce a large quantity of nitrogen monoxide after activation by lipopolysaccharides (LPS) and interferon-γ(IFN-γ). The cells are cultivated in DMEM medium (Dulbecco's Modified Eagle Medium) enriched with 10% foetal calf serum at 37° C. under an atmosphere of 5% CO2 after activation by LPS and IFN-γ. They are seeded in a quantity of 5000 cells/cm^2 in 150 cm^2 bottles. The incubations are carried out in the presence of LPS (1g/ml) and murine IFN-γ (50 U/ml) in DMEM enriched with 10% foetal calf serum. The NO synthase is isolated with an extraction buffer (HEPES 50 mM, pH 7.4, dithiothreitol 0.5 mM, pepstatin A 1 mg/ml, leupeptin 1 mg/ml, soya trypsin inhibitor 1 mg/ml, antipain 1 mg/ml, and PMSF 10 mg/ml). After sonication in the extraction buffer at 4° C., the homogenised products are ultracentrifuged (100,000 g with 3,5-di-tert.butyl-4-hydroxybenzoic acid 4° C. for 1 h). The protocol is then identical to that of cerebellum NO synthase except for the composition of the incubation buffer (100 mM of HEPES, pH 7.4, 1 mM dithiothreitol, 2.5 mM of CaCl2, 10 M of tetrahydrobiopterin, FAD 10 μM, BSA 1 mg/ml, 2 mM of reduced NADPH).

inducible NO synthase [2] = target: T1, inducible NO synthase; assay: In vitro effect on the production of nitrites by murine macrophages J774A1; format: cell-based; settings: J774A1 cells, LPS 1 μg/ml + IFN-γ 50 U/ml, 48 hours; read-out: IC50 Inducible NO synthase (formation of nitrites)
Protocol: 3) In vitro effect on the production of nitrites by murine macrophages J774A1
This test is used to measure the inhibitory activity of the products on inducible NO synthase of culture cells. The cells are cultivated in DMEM medium (Dulbecco's Modified Eagle Medium) enriched with 10% foetal calf serum at 37° C. under an atmosphere of 5% CO2. For the experiments, they are distributed in 96-well plates (50,000 cells per well) and incubated in DMEM without phenol red containing 10% foetal calf serum with LPS (1 μg/ml) and murine IFN-γ(50 U/ml) in the presence or absence of the products to be tested. After 48 hours, the concentration of nitrites in the culture media, degradation products of nitrogen monoxide, is measured by a colorimetric method according to Green et al. (Analytical Biochemistry, 126, 131-138 (1982)). The results are expressed in terms of the IC50 value and are summarised in the table of paragraph 2 (third column of results entitled "inducible NO synthase, formation of nitrites").

[3] = system: production of superoxide anions by J774A1 cells; assay: In vitro effect on the formation of superoxide anions (PMA-activated J774A1 cells, luminol chemiluminescence); format: cell-based, murine
Protocol: 4) In vitro effect on the formation of superoxide anions
The activation of the macrophage cells J774A1 by phorbol myristate acetate (PMA) leads to the production of superoxide anions in a few minutes. These superoxide anions are able to oxidise a luminescent substrate, luminol. This reaction generates photons, the production of which is measured by means of a chemiluminometer. The effects of the products on the production of superoxide anions are tested by incubating the J774A1 cells at 37° C. in the presence of PMA, products to be tested, and luminol. The results are expressed in terms of the IC50 value.

[4] = Example 3, A 0.03 mg/kg i.v. (NS), B 20 mg/kg i.p. (NS), AB: A 0.03 mg/kg i.v. and B 20 mg/kg i.p. (** very significant), control 237.68 ± 31.51
[5] = Example 3, A 0.03 mg/kg i.v., B 20 mg/kg i.p., AB: A 0.03 mg/kg i.v. and B 20 mg/kg i.p.
[6] = 3,5-di-tert-butyl-4-hydroxybenzoic acid 20 mg/kg, aminoguanidine, their combination
[7] = Example 1, i.p. 4 h and 24 h after, A 30 mg/kg (NS), B 20 mg/kg (NS), AB 50 mg/kg (** very significant), control 270.4 ± 30.05
[8] = Example 1, i.p., A 30 mg/kg, B 20 mg/kg, AB 50 mg/kg
[9] = Example 2, i.p., A 10 mg/kg (NS), B 20 mg/kg (NS), AB: A 10 mg/kg and B 20 mg/kg (** very significant), control 270.4 ± 30.05
[10] = Example 2, i.p., A 10 mg/kg, B 20 mg/kg, AB: A 10 mg/kg and B 20 mg/kg

Row | Compound | Volume of infarct (focal cerebral ischaemia; [4]) | % Protection (focal cerebral ischaemia; [5]) [%] | protection of the animals from ischaemia (in words) (focal cerebral ischaemia; nitroarginine 0.03 mg/kg, combined with i.p. 3,5-di-tert-butyl-4-hydroxybenzoic acid) | IC50 (constitutive NO synthase; read-out: IC50 Constitutive NO synthase (formation of citrulline), rat cerebellum homogenate, pH 7.4, 15 min) [µM] | IC50 (inducible NO synthase [1]) [µM] | IC50 (inducible NO synthase [2]) [µM] | IC50 ([3]; 37° C.) [µM] | protection of the animals from ischaemia (in words) (focal cerebral ischaemia; [6]) | Volume of infarct (focal cerebral ischaemia; [7]) | % Protection (focal cerebral ischaemia; [8]) [%] | IC50 (constitutive NO synthase) [µM] | IC50 formation of superoxide anions ([3]; 37° C.) | IC50 ([3]; Mus musculus, J774.A1, 37° C.) [µM] | Volume of infarct (focal cerebral ischaemia; [9]) | % Protection (focal cerebral ischaemia; [10]) [%] | protection of the animals from ischaemia (in words) (focal cerebral ischaemia; 7-nitroindazole 10 mg/kg, combined with 3,5-di-tert-butyl-4-hydroxybenzoic acid)
1 | N=C(NCCC[C@H](N)C(=O)O)N[N+](=O)[O-] [Example 3 A, NGnitroarginine] | 238.14 ± 35.94 | 0 | not significantly active |  |  |  |  |  |  |  |  |  |  |  |  | 
2 | CC(C)(C)c1cc(C(=O)O)cc(C(C)(C)C)c1O.N=C(N)NN [Example 1 AB] |  |  |  | > 300 | 57 | 26 | 30 | protects the animals from ischaemia in a highly significant manner | 89.6 ± 22.42 | 63.2 |  |  |  |  |  | 
3 | N=C(N)NN [Example 1 A, aminoguanidine] |  |  |  |  | 29 | 22 |  | low activity | 233 ± 30.15 | 13.8 | > 300 | inactive |  |  |  | 
4 | CC(C)(C)c1cc(C(=O)O)cc(C(C)(C)C)c1O [Example 1 B, 3,5-di-tert-butyl-4-hydroxybenzoic acid] | 222.9 ± 7.34 | 6.2 |  |  |  |  |  | inactive | 250.9 ± 37.86 | 7.1 |  |  | 30 | 250.9 ± 37.86 | 7.1 | 
5 | O=[N+]([O-])c1cccc2cn[nH]c12 [Example 2 A, 7-nitroindazole] |  |  |  |  |  |  |  |  |  |  |  |  |  | 238.9 ± 27.08 | 11.7 | not significantly active

From patent US6297281A, “Association of no syntase inhibitors with trappers of oxygen reactive forms” (priority 1996, dated 2001)
